Each structure is given as a SMILES string. Active and inactive are the calls of the source.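 The calls were made as follows: active = survival repeatably raised 25 points above the stressor-only control level of 35%, about 60% survival; inactive = the rest.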

In PubChem BioAssay AID1347 (Sanford-Burnham Center for Chemical Genomics, 2008) one finds survival data, which are given here for eleven molecules.

The test system of this test is differentiated CSM14.1, thapsigargin death rescue, ATPlite, 24 h. Description: ER stress death protection in CSM14.1 neurons – cell-based, differentiated CSM14.1, ATP luminescence, SAR follow-up (AID 1347). Particulars: at 25 µM; hits give high values.
Take `COc1ccc(C2CC(=O)C3=C(C2)Nc2ccccc2NC3c2cccc(Br)c2)cc1OC` (stereo unspecified): the survival was 63%.
With `COc1ccc(C2CC(=O)C3=C(C2)Nc2ccccc2NC3c2cccc(C(F)(F)F)c2)cc1OC` (stereo unspecified) the figure was 65%; with `COc1ccc(C2CC(=O)C3=C(C2)Nc2ccccc2NC3c2cc(C)ccc2C)cc1` (stereo unspecified), 69%.
Consider `CCOc1cccc(C2Nc3ccccc3NC3=C2C(=O)CC(c2ccc(OC)cc2)C3)c1` (stereo unspecified), for which the survival was 64%.
With `CCOc1cc(C2Nc3ccccc3NC3=C2C(=O)CC(c2ccc(OC)cc2)C3)cc(Cl)c1O` (stereo unspecified) the figure was 20% (inactive).
For the molecule `CSc1ccc(C2Nc3ccccc3NC3=C2C(=O)CC(c2ccccc2)C3)cc1` (stereo unspecified), the survival is 65%.
`O=C1CC(c2ccccc2)CC2=C1C(c1c(F)cccc1Cl)Nc1ccccc1N2` (stereo unspecified): the survival was 10% (inactive).
Turning to `CCCOc1ccc(C2Nc3ccccc3NC3=C2C(=O)CC(c2ccc(OC)c(OC)c2)C3)cc1` (stereo unspecified), the survival was 68%.
With `COc1ccc(C2CC(=O)C3=C(C2)Nc2ccccc2NC3c2ccccc2C(F)(F)F)cc1OC` (stereo unspecified) the figure was 68%; with `CC1(C)CC(=O)C2=C(C1)Nc1ccccc1NC2c1ccc(-c2ccccc2)cc1` (stereo unspecified), 47%.
Take `COc1ccc(C2CC(=O)C3=C(C2)Nc2ccccc2NC3c2cccc(Oc3ccccc3)c2)cc1OC` (stereo unspecified): the survival was 66%.
